Series [1] concerns Bombus terrestris. In words: Toxicity against worker Bombus terrestris (bumblebee) assessed as mortality at 240 mg a.i./l, po administered through pollen for 11 weeks measured everyday for 3 days followed by once a week for 11 weeks. The series is classed as functional.
For series [2], the system named is Bombus terrestris. Nature of the series: Contact toxicity against worker Bombus terrestris (bumblebee) assessed as mortality at 240 mg a.i./l applied on the dorsal thorax for 11 weeks measured everyday for 3 days followed by once a week for 11 weeks. The series is classed as functional.
Series [3] deals with Bombus terrestris. In words: Toxicity against worker Bombus terrestris (bumblebee) assessed as mortality at 240 mg a.i./l, po administered through sugar water measured up to 1 week. The series is classed as functional, organism-based.
For series [4], the system named is Bombus terrestris. Nature of the series: Toxicity against worker Bombus terrestris (bumblebee) assessed as mortality at 240 mg a.i./l, po administered through sugar water for 11 weeks measured everyday for 3 days followed by once a week for 11 weeks. The series is classed as functional.
For series [5], the system named is Apis mellifera. In words: Contact toxicity against Apis mellifera (honey bee) assessed per bee. Type of series: functional.
For series [6], the system named is Bombus terrestris. Nature of the series: Toxicity against worker Bombus terrestris (bumblebee) assessed as reduction in reproduction at 240 mg a.i./l, po administered through pollen for 11 weeks measured once a week for 11 weeks. Type of series: functional, organism-based.
Series [7] relates to Apis mellifera. In words: Toxicity against Apis mellifera (honey bee) assessed per bee. The series is classed as functional.
Series [8] has as its system Bombus terrestris. Nature of the series: Toxicity against worker Bombus terrestris (bumblebee) assessed as mortality at 240 mg a.i./l, po administered through pollen measured after 5 weeks. Type of series: functional. To be noted: 840 h.
For series [9], the system named is Bombus terrestris. In words: Contact toxicity against worker Bombus terrestris (bumblebee) assessed as reduction in reproduction at 240 mg a.i./l applied on the dorsal thorax for 11 weeks measured once a week for 11 weeks relative to control. Type of series: functional, organism-based.
For series [10], the system named is Bombus terrestris. Nature of the series: Toxicity against worker Bombus terrestris (bumblebee) assessed as reduction in reproduction at 240 mg a.i./l, po administered through sugar water for 11 weeks measured once a week for 11 weeks relative to control. The series is classed as functional, organism-based.
Series [11] has as its system Bombus terrestris. Nature of the series: Toxicity against worker Bombus terrestris (bumblebee) assessed as mortality at 240 mg a.i./l, po administered through pollen measured after 8 weeks. The conditions noted are these: 1344 h. Type of series: functional.
Series [12] concerns Bombus terrestris. In words: Contact toxicity against Bombus terrestris (bumblebee) assessed per bee. Type of series: functional.
For series [13], the system named is Bombus terrestris. Nature of the series: Contact toxicity against worker Bombus terrestris (bumblebee) assessed as reduction in reproduction at 50 mg a.i./l applied on the dorsal thorax for 11 weeks measured once a week for 11 weeks relative to control. The series is classed as functional, organism-based.
In series [14] the test system is Bombus terrestris. In words: Toxicity against worker Bombus terrestris (bumblebee) assessed as mortality at 50 mg a.i./l, po administered through sugar water for 11 weeks measured everyday for 3 days followed by once a week for 11 weeks. Type of series: functional.
The test system of series [15] is Apis mellifera. In words: Toxicity against Apis mellifera (honey bee) assessed as adverse efffect at 250 mg/l. The series is classed as functional, organism-based.
The test system of series [16] is Bombus terrestris. In words: Toxicity against worker Bombus terrestris (bumblebee) assessed as mortality at 50 mg a.i./l, po administered through sugar water measured after 4 to 6 weeks. The series is classed as functional, organism-based.
A short description of series [17]: n-octanol-water distribution coefficient, log KOW of the compound. To be noted: read-out: log KOW. The series is classed as physicochemical.
Series [18] relates to Bombus terrestris. In words: Contact toxicity against worker Bombus terrestris (bumblebee) assessed as mortality at 50 mg a.i./l applied on the dorsal thorax for 11 weeks measured everyday for 3 days followed by once a week for 11 weeks. The series is classed as functional.
The subject of series [19] is Bombus terrestris. In words: Toxicity against worker Bombus terrestris (bumblebee) assessed as reduction in reproduction at 50 mg a.i./l, po administered through pollen for 11 weeks measured once a week for 11 weeks. Type of series: functional. Also on record: scale not given: the % may be the effect or the level left.
Series [20] concerns Bombus terrestris. Nature of the series: Toxicity against worker Bombus terrestris (bumblebee) assessed as reduction in reproduction at 50 mg a.i./l, po administered through sugar water for 11 weeks measured once a week for 11 weeks relative to control. The series is classed as functional. Further details: scale not given: the % may be the effect or the level left.
Series [21] relates to Bombus terrestris. Nature of the series: Toxicity against worker Bombus terrestris (bumblebee) assessed as mortality at 50 mg a.i./l, po administered through pollen for 11 weeks measured everyday for 3 days followed by once a week for 11 weeks. Type of series: functional, organism-based.
Series [22] deals with Bombus terrestris. In words: Toxicity against worker Bombus terrestris (bumblebee) assessed as reduction in reproduction at 3 mg a.i./l, po administered through sugar water for 11 weeks measured once a week for 11 weeks relative to control. The series is classed as functional, organism-based.
Series [23] deals with Bombus terrestris. Nature of the series: Toxicity against worker Bombus terrestris (bumblebee) assessed as reduction in reproduction at 3 mg a.i./l, po administered through pollen for 11 weeks measured once a week for 11 weeks. The series is classed as functional. Further details: scale not given: the % may be the effect or the level left.
The subject of series [24] is Bombus terrestris. In words: Contact toxicity against worker Bombus terrestris (bumblebee) assessed as reduction in reproduction at 3 mg a.i./l applied on the dorsal thorax for 11 weeks measured once a week for 11 weeks relative to control. The series is classed as functional, organism-based.
Series [25] relates to Bombus terrestris. In words: Toxicity against worker Bombus terrestris (bumblebee) assessed as mortality at 3 mg a.i./l, po administered through sugar water for 11 weeks measured everyday for 3 days followed by once a week for 11 weeks. Type of series: functional.
Series [26] has as its system Bombus terrestris. In words: Contact toxicity against worker Bombus terrestris (bumblebee) assessed as mortality at 3 mg a.i./l applied on the dorsal thorax for 11 weeks measured everyday for 3 days followed by once a week for 11 weeks. The series is classed as functional.
The subject of series [27] is Bombus terrestris. Nature of the series: Toxicity against worker Bombus terrestris (bumblebee) assessed as mortality at 3 mg a.i./l, po administered through pollen for 11 weeks measured everyday for 3 days followed by once a week for 11 weeks. Type of series: functional.
Series [28] has as its system Bombus terrestris. Nature of the series: Contact toxicity against worker Bombus terrestris (bumblebee) assessed as reduction in reproduction at 55 mg a.i./l applied on the dorsal thorax for 11 weeks measured once a week for 11 weeks relative to control. The series is classed as functional, organism-based.
The subject of series [29] is Bombus terrestris. In words: Toxicity against worker Bombus terrestris (bumblebee) assessed as reduction in reproduction at 55 mg a.i./l, po administered through pollen for 11 weeks measured once a week for 11 weeks. The series is classed as functional. Also on record: scale not given: the % may be the effect or the level left.
Series [30] concerns Bombus terrestris. Nature of the series: Toxicity against po dosed worker Bombus terrestris (bumblebee) administered through sugar water for 11 weeks measured everyday for 3 days followed by once a week for 11 weeks. Type of series: functional.
The test system of series [31] is Bombus terrestris. Nature of the series: Contact toxicity against worker Bombus terrestris (bumblebee) assessed as mortality at 55 mg a.i./l applied on the dorsal thorax for 11 weeks measured everyday for 3 days followed by once a week for 11 weeks. The series is classed as functional.
The test system of series [32] is Bombus terrestris. Nature of the series: Toxicity against worker Bombus terrestris (bumblebee) assessed as reduction in reproduction at 55 mg a.i./l, po administered through sugar water for 11 weeks measured once a week for 11 weeks relative to control. Type of series: functional, organism-based.
The test system of series [33] is Bombus terrestris. In words: Toxicity against worker Bombus terrestris (bumblebee) assessed as mortality at 55 mg a.i./l, po administered through pollen for 11 weeks measured everyday for 3 days followed by once a week for 11 weeks. Type of series: functional, organism-based.
Series [34] has as its system Bombus terrestris. Nature of the series: Toxicity against worker Bombus terrestris (bumblebee) assessed as mortality at 55 mg a.i./l, po administered through sugar water measured after 9 to 11 weeks. The series is classed as functional, organism-based.
Series [35] deals with Bombus terrestris. Nature of the series: Toxicity against worker Bombus terrestris (bumblebee) assessed as mortality at 55 mg a.i./l, po administered through sugar water for 11 weeks measured everyday for 3 days followed by once a week for 11 weeks. The series is classed as functional.

Activity calls are given as the source filed them. The calls are words filed in the database; no cut-off is given here.

Turning to `CCOCn1c(-c2ccc(Cl)cc2)c(C#N)c(Br)c1C(F)(F)F` [CHLORFENAPYR], the mortality at 240 µg/mL in the series with Bombus terrestris [1] is 90%; in the series on Bombus terrestris [2] it was less than 25%; with Bombus terrestris [4], 95%; with Bombus terrestris [8], 50%; in the series with Bombus terrestris [11], 90%. Moreover, the outcome in the series with Bombus terrestris [3], in the series on Bombus terrestris [6] and in the series with Bombus terrestris [10] was Active. Moreover, the LD50 in the series on Apis mellifera [5] is less than 1 µg; in the series with Apis mellifera [7], 0.2 µg; with Bombus terrestris [12] it was more than 100 µg. Also, the outcome in the series with Bombus terrestris [9] was inactive.

In the case of `Cc1nn(C)c(Oc2ccccc2)c1/C=N/OCc1ccc(C(=O)OC(C)(C)C)cc1` [FENPYROXYMATE], the result with Bombus terrestris [13], with Apis mellifera [15] and with Bombus terrestris [21] was inactive. Also, the mortality at 50 µg/mL is 95% in the series with Bombus terrestris [14] and less than 25% in the series on Bombus terrestris [18]. The outcome with Bombus terrestris [16] was Active. Moreover, in series [17], the logP was found to be 5.01. Further, the Activity in the series with Bombus terrestris [19] stood at 50%; in the series on Bombus terrestris [20] it was 90%.

`C[C@@H]1[C@@H](c2ccc(Cl)cc2)SC(=O)N1C(=O)NC1CCCCC1` (relative stereo) [HEXYTHIAZOX]: in the series with Bombus terrestris [22], the outcome was Active. Also, in the series with Bombus terrestris [23], the Activity is reported as 50%. In addition, in the series with Bombus terrestris [24], the outcome was inactive. Further, the mortality at 3 µg/mL was less than 25% with Bombus terrestris [25], less than 25% with Bombus terrestris [26] and 90% in the series with Bombus terrestris [27].

As for `CCOc1cc(C(C)(C)C)ccc1C1COC(c2c(F)cccc2F)=N1` (stereo unspecified) [ETOXAZOLE], the result in the series on Bombus terrestris [28], with Bombus terrestris [32] and in the series on Bombus terrestris [34] was Active. Also, the Activity with Bombus terrestris [29] was 25%. The compound further showed an LC50 with Bombus terrestris [30] of 4.4 mgAi/L. The same compound gave an NOAEL in the series with Bombus terrestris [30] of 0.55 mgAi/L. The mortality at 55 µg/mL with Bombus terrestris [31] is less than 25%; with Bombus terrestris [35] it was 95%. Further, the result in the series with Bombus terrestris [33] was inactive.

By mortality is commonly meant the percentage killed. What is called NOAEL is the highest dose or exposure tested at which no adverse effect was seen.

(Values after ChEMBL document CHEMBL3045684, “Compatibility of traditional and novel acaricides with bumblebees (Bombus terrestris): a first laboratory assessment of toxicity and sublethal effects” (Pest Manag Sci, 2010).)
